Assay results: patent US20260250257A1, “ANTIBACTERIAL AND SYNERGISTIC ACTIVE COMPOUND AND USE THEREOF” (EAST CHINA UNIVERSITY OF SCIENCE AND TECHNOLOGY, priority 2023, published 2026)
Values after ≈ are worked out from the molar mass of the structure shown.

What follows are compounds tested on ATCC25922 strain (Escherichia coli) (assay: Checkerboard antibacterial synergistic activity test with polymyxin E (FIC)). Conditions: combined with polymyxin E.
Assay type: cell-based
Set-up: key: FIC≤0.5 synergy; 0.5–1 additive; 1–2 indifferent; ≥2 antagonism
In short: (§1)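 Polymyxin E was diluted in MH broth to 16–0.015 μg/ml and the test compound to 256–4 μg/ml (two-fold series, pre-mixing concentrations), combined checkerboard-style in 96-well plates with bacterial suspension and blank controls, and incubated at 37° C. for 16 h. FIC ≤0.5 was scored synergistic, >0.5 to <1 additive, 1–2 indifferent, ≥2 antagonistic.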

Question: How did the “Synergistic activity (FIC value) ATCC25922” value turn out when `NC(N)=Nc1nc(-c2cc(Cl)cc(Oc3ccc(Cl)cc3Cl)c2)cs1` [Compound I-99] was run?
Answer: 0.18

Question: For `NC(N)=Nc1nc(-c2ccc3ccccc3c2)cs1` [Compound I-56], which “Synergistic activity (FIC value) ATCC25922” value is on record?
Answer: 0.5

Question: How did the “Synergistic activity (FIC value) ATCC25922” value turn out when `CCc1sc(N=C(N)N)nc1-c1ccccc1-c1ccncn1` [Compound I-77] was run?
Answer: 0.63

Question: `CS(=O)(=O)Nc1cccc(-c2csc(N=C(N)N)n2)c1` [Compound I-32] was tested. Which “Synergistic activity (FIC value) ATCC25922” value did it give?
Answer: 1.25

Question: For `NC(N)=Nc1nc(-c2cccc3cc(Cl)cc(Cl)c23)c(Br)s1` [Compound I-66], which “Synergistic activity (FIC value) ATCC25922” value is on record?
Answer: 0.38

Question: Which “Synergistic activity (FIC value) ATCC25922” value does the source give for `FC(F)(F)c1ccc(-c2cccs2)c(-c2c[nH]c(N=C3NCCCN3)n2)c1` [Compound I-140] here?
Answer: 1.25

Question: Which “Synergistic activity (FIC value) ATCC25922” value does the source give for `CC(C)=CCOc1cccc(-c2csc(N=C(N)N)n2)c1` [Compound I-47] here?
Answer: 0.5

The compounds below were run on ATCC19606 strain (Acinetobacter baumannii) in the same assay as above. Conditions: combined with polymyxin E.
Assay type: cell-based
Set-up: key: FIC≤0.5 synergy; 0.5–1 additive; 1–2 indifferent; ≥2 antagonism
In short: as §1

Question: Which “Synergistic activity (FIC value) ATCC19606” value does the source give for `NC(N)=Nc1nc(-c2cc(Cl)cc(Oc3ccc(Cl)cc3Cl)c2)cs1` [Compound I-99] here?
Answer: 0.03

Question: Which “Synergistic activity (FIC value) ATCC19606” value does the source give for `NC(N)=Nc1nc(-c2ccc3ccccc3c2)cs1` [Compound I-56] here?
Answer: 1.25

Question: Which “Synergistic activity (FIC value) ATCC19606” value does the source give for `CCc1sc(N=C(N)N)nc1-c1ccccc1-c1ccncn1` [Compound I-77] here?
Answer: 0.52

Question: For `CS(=O)(=O)Nc1cccc(-c2csc(N=C(N)N)n2)c1` [Compound I-32], which “Synergistic activity (FIC value) ATCC19606” value is on record?
Answer: 0.25

Question: How did the “Synergistic activity (FIC value) ATCC19606” value turn out when `NC(N)=Nc1nc(-c2cccc3cc(Cl)cc(Cl)c23)c(Br)s1` [Compound I-66] was run?
Answer: 0.13

Question: With `FC(F)(F)c1ccc(-c2cccs2)c(-c2c[nH]c(N=C3NCCCN3)n2)c1` [Compound I-140] as the compound, how does the “Synergistic activity (FIC value) ATCC19606” value read?
Answer: 0.51

Question: `CC(C)=CCOc1cccc(-c2csc(N=C(N)N)n2)c1` [Compound I-47] was tested. Which “Synergistic activity (FIC value) ATCC19606” value did it give?
Answer: 0.75

Each compound was assayed on ATCC9027 strain (Pseudomonas aeruginosa) in the same assay as above. Conditions: combined with polymyxin E.
Assay type: cell-based
Set-up: key: FIC≤0.5 synergy; 0.5–1 additive; 1–2 indifferent; ≥2 antagonism
In short: as §1

Question: `NC(N)=Nc1nc(-c2cc(Cl)cc(Oc3ccc(Cl)cc3Cl)c2)cs1` [Compound I-99] was tested. Which “Synergistic activity (FIC value) ATCC9027” value did it give?
Answer: 0.28

Question: `NC(N)=Nc1nc(-c2ccc3ccccc3c2)cs1` [Compound I-56] was tested. Which “Synergistic activity (FIC value) ATCC9027” value did it give?
Answer: 1.25

Question: For `CCc1sc(N=C(N)N)nc1-c1ccccc1-c1ccncn1` [Compound I-77], which “Synergistic activity (FIC value) ATCC9027” value is on record?
Answer: 1.25

Question: For `CS(=O)(=O)Nc1cccc(-c2csc(N=C(N)N)n2)c1` [Compound I-32], which “Synergistic activity (FIC value) ATCC9027” value is on record?
Answer: 0.52

Question: For `NC(N)=Nc1nc(-c2cccc3cc(Cl)cc(Cl)c23)c(Br)s1` [Compound I-66], which “Synergistic activity (FIC value) ATCC9027” value is on record?
Answer: 0.53

Question: With `FC(F)(F)c1ccc(-c2cccs2)c(-c2c[nH]c(N=C3NCCCN3)n2)c1` [Compound I-140] as the compound, how does the “Synergistic activity (FIC value) ATCC9027” value read?
Answer: 0.52

Question: How did the “Synergistic activity (FIC value) ATCC9027” value turn out when `CC(C)=CCOc1cccc(-c2csc(N=C(N)N)n2)c1` [Compound I-47] was run?
Answer: 1.25

These compounds were tested on ATCC13883 strain (Klebsiella pneumoniae) in the same assay as above. Conditions: combined with polymyxin E.
Assay type: cell-based
Set-up: key: FIC≤0.5 synergy; 0.5–1 additive; 1–2 indifferent; ≥2 antagonism
In short: as §1

Question: Which “Synergistic activity (FIC value) ATCC13883” value does the source give for `NC(N)=Nc1nc(-c2cc(Cl)cc(Oc3ccc(Cl)cc3Cl)c2)cs1` [Compound I-99] here?
Answer: 0.16

Question: How did the “Synergistic activity (FIC value) ATCC13883” value turn out when `NC(N)=Nc1nc(-c2ccc3ccccc3c2)cs1` [Compound I-56] was run?
Answer: 1.25

Question: `CCc1sc(N=C(N)N)nc1-c1ccccc1-c1ccncn1` [Compound I-77] was tested. Which “Synergistic activity (FIC value) ATCC13883” value did it give?
Answer: 0.52

Question: How did the “Synergistic activity (FIC value) ATCC13883” value turn out when `CS(=O)(=O)Nc1cccc(-c2csc(N=C(N)N)n2)c1` [Compound I-32] was run?
Answer: 1.25

Question: `NC(N)=Nc1nc(-c2cccc3cc(Cl)cc(Cl)c23)c(Br)s1` [Compound I-66] was tested. Which “Synergistic activity (FIC value) ATCC13883” value did it give?
Answer: 0.31

Question: For `FC(F)(F)c1ccc(-c2cccs2)c(-c2c[nH]c(N=C3NCCCN3)n2)c1` [Compound I-140], which “Synergistic activity (FIC value) ATCC13883” value is on record?
Answer: 1.25

Question: For `CC(C)=CCOc1cccc(-c2csc(N=C(N)N)n2)c1` [Compound I-47], which “Synergistic activity (FIC value) ATCC13883” value is on record?
Answer: 1.25

What follows are compounds tested on ATCC25922 strain (Escherichia coli) (assay: Broth microdilution, antibacterial activity of the compound used alone). Conditions: not given.
Assay type: cell-based
From the text: (§2) The broth microdilution method was used to test the antibacterial effects of the compounds of the present invention against various Gram-negative bacterial strains when used alone.

Question: How did the “Antibacterial activity of the compound of Formula I, ATCC25922” value (from here on “Antibacterial activity … ATCC25922”) turn out when `NC(N)=Nc1nc(-c2cc(Cl)cc(Oc3ccc(Cl)cc3Cl)c2)cs1` [Compound I-99] was run?
Answer: 256 µg/mL

Question: `CCc1sc(N=C(N)N)nc1-c1ccccc1-c1ccncn1` [Compound I-77] was tested. Which “Antibacterial activity … ATCC25922” value did it give?
Answer: 256 µg/mL

Question: How did the “Antibacterial activity … ATCC25922” value turn out when `CS(=O)(=O)Nc1cccc(-c2csc(N=C(N)N)n2)c1` [Compound I-32] was run?
Answer: 256 µg/mL

Question: How did the “Antibacterial activity … ATCC25922” value turn out when `NC(N)=Nc1nc(-c2cccc3cc(Cl)cc(Cl)c23)c(Br)s1` [Compound I-66] was run?
Answer: 256 µg/mL

Question: For `FC(F)(F)c1ccc(-c2cccs2)c(-c2c[nH]c(N=C3NCCCN3)n2)c1` [Compound I-140], which “Antibacterial activity … ATCC25922” value is on record?
Answer: 256 µg/mL

Same assay, conditions: read-out: Antibacterial activity of the compound of Formula I, ATCC25922

Question: For `NC(N)=Nc1nc(-c2ccc3ccccc3c2)cs1` [Compound I-56], which MIC is on record?
Answer: 256 µg/mL (≈ 954 µM)

Question: How did the MIC turn out when `CC(C)=CCOc1cccc(-c2csc(N=C(N)N)n2)c1` [Compound I-47] was run?
Answer: 256 µg/mL (≈ 847 µM)

What follows are compounds tested on ATCC19606 strain (Acinetobacter baumannii) in the same assay as above. Conditions: not given.
Assay type: cell-based
From the text: as §2

Question: `NC(N)=Nc1nc(-c2cc(Cl)cc(Oc3ccc(Cl)cc3Cl)c2)cs1` [Compound I-99] was tested. Which “Antibacterial activity of the compound of Formula I, ATCC19606” value (“Antibacterial activity … ATCC19606” for short) did it give?
Answer: 256 µg/mL

Question: For `CCc1sc(N=C(N)N)nc1-c1ccccc1-c1ccncn1` [Compound I-77], which “Antibacterial activity … ATCC19606” value is on record?
Answer: 256 µg/mL

Question: With `CS(=O)(=O)Nc1cccc(-c2csc(N=C(N)N)n2)c1` [Compound I-32] as the compound, how does the “Antibacterial activity … ATCC19606” value read?
Answer: 256 µg/mL

Question: Which “Antibacterial activity … ATCC19606” value does the source give for `NC(N)=Nc1nc(-c2cccc3cc(Cl)cc(Cl)c23)c(Br)s1` [Compound I-66] here?
Answer: 256 µg/mL

Question: Which “Antibacterial activity … ATCC19606” value does the source give for `FC(F)(F)c1ccc(-c2cccs2)c(-c2c[nH]c(N=C3NCCCN3)n2)c1` [Compound I-140] here?
Answer: 256 µg/mL

Same assay, conditions: read-out: Antibacterial activity of the compound of Formula I, ATCC19606

Question: With `NC(N)=Nc1nc(-c2ccc3ccccc3c2)cs1` [Compound I-56] as the compound, how does the MIC read?
Answer: 256 µg/mL (≈ 954 µM)

Question: `CC(C)=CCOc1cccc(-c2csc(N=C(N)N)n2)c1` [Compound I-47] was tested. Which MIC did it give?
Answer: 256 µg/mL (≈ 847 µM)

The compounds below were run on ATCC9027 strain (Pseudomonas aeruginosa) in the same assay as above. Conditions: not given.
Assay type: cell-based
From the text: as §2

Question: Which “Antibacterial activity of the compound of Formula I, ATCC9027” value (“Antibacterial activity … ATCC9027” for short) does the source give for `NC(N)=Nc1nc(-c2cc(Cl)cc(Oc3ccc(Cl)cc3Cl)c2)cs1` [Compound I-99] here?
Answer: 256 µg/mL

Question: How did the “Antibacterial activity … ATCC9027” value turn out when `CCc1sc(N=C(N)N)nc1-c1ccccc1-c1ccncn1` [Compound I-77] was run?
Answer: 256 µg/mL

Question: With `CS(=O)(=O)Nc1cccc(-c2csc(N=C(N)N)n2)c1` [Compound I-32] as the compound, how does the “Antibacterial activity … ATCC9027” value read?
Answer: 256 µg/mL

Question: Which “Antibacterial activity … ATCC9027” value does the source give for `NC(N)=Nc1nc(-c2cccc3cc(Cl)cc(Cl)c23)c(Br)s1` [Compound I-66] here?
Answer: 256 µg/mL

Question: How did the “Antibacterial activity … ATCC9027” value turn out when `FC(F)(F)c1ccc(-c2cccs2)c(-c2c[nH]c(N=C3NCCCN3)n2)c1` [Compound I-140] was run?
Answer: 256 µg/mL

Same assay, conditions: read-out: Antibacterial activity of the compound of Formula I, ATCC9027

Question: How did the MIC turn out when `NC(N)=Nc1nc(-c2ccc3ccccc3c2)cs1` [Compound I-56] was run?
Answer: 256 µg/mL (≈ 954 µM)

Question: Which MIC does the source give for `CC(C)=CCOc1cccc(-c2csc(N=C(N)N)n2)c1` [Compound I-47] here?
Answer: 256 µg/mL (≈ 847 µM)

These compounds were tested on ATCC13883 strain (Klebsiella pneumoniae) in the same assay as above. Conditions: not given.
Assay type: cell-based
From the text: as §2

Question: For `NC(N)=Nc1nc(-c2cc(Cl)cc(Oc3ccc(Cl)cc3Cl)c2)cs1` [Compound I-99], which “Antibacterial activity of the compound of Formula I, ATCC13883” value (“Antibacterial activity … ATCC13883” below) is on record?
Answer: 256 µg/mL

Question: With `CCc1sc(N=C(N)N)nc1-c1ccccc1-c1ccncn1` [Compound I-77] as the compound, how does the “Antibacterial activity … ATCC13883” value read?
Answer: 256 µg/mL

Question: With `CS(=O)(=O)Nc1cccc(-c2csc(N=C(N)N)n2)c1` [Compound I-32] as the compound, how does the “Antibacterial activity … ATCC13883” value read?
Answer: 256 µg/mL

Question: Which “Antibacterial activity … ATCC13883” value does the source give for `NC(N)=Nc1nc(-c2cccc3cc(Cl)cc(Cl)c23)c(Br)s1` [Compound I-66] here?
Answer: 256 µg/mL

Question: For `FC(F)(F)c1ccc(-c2cccs2)c(-c2c[nH]c(N=C3NCCCN3)n2)c1` [Compound I-140], which “Antibacterial activity … ATCC13883” value is on record?
Answer: 256 µg/mL

Same assay, conditions: read-out: Antibacterial activity of the compound of Formula I, ATCC13883

Question: For `NC(N)=Nc1nc(-c2ccc3ccccc3c2)cs1` [Compound I-56], which MIC is on record?
Answer: 256 µg/mL (≈ 954 µM)

Question: `CC(C)=CCOc1cccc(-c2csc(N=C(N)N)n2)c1` [Compound I-47] was tested. Which MIC did it give?
Answer: 256 µg/mL (≈ 847 µM)
